Data as given in ChEMBL document CHEMBL5131569, “SAGE-718: A First-in-Class N-Methyl-d-Aspartate Receptor Positive Allosteric Modulator for the Potential Treatment of Cognitive Impairment” (J Med Chem, 2022).
In brackets after ≈: the same amount, converted by molar mass.

How the values were obtained:
[1] = Metabolic stability in rat liver microsomes assessed as intrinsic clearance at 10 uM preincubated for 5 mins followed by NADPH addition and measured upto 65 mins by LC-MS/MS analysis; assay type: ADME, Microsome; details: time < 70 min, read-out: CLH
[2] = target: Glutamate NMDA receptor; GRIN1/GRIN2A (Homo sapiens, UniProt Q05586+Q12879); test: Positive allosteric modulation of recombinant human GluN1/GluN2A receptor stably expressed in HEK293 cells assessed as increase in glycine/L-glutamate-induced channel current at -70 mV holding potential by whole cell patch clamp method; assay type: cell-based
[3] = Lipophilicity, logD of compound in MeOH at 20 uM by HPLC analysis; assay type: physicochemical
[4] = Aqueous solubility of compound in PBS incubated for 1 hr under shaking condition by HPLC-MS/MS analysis; assay type: physicochemical
[5] = Metabolic stability in monkey hepatocytes assessed as clearance at 10 uM measured upto 120 mins by LC-MS/MS analysis; assay type: ADME, cell-based, Macaca mulatta, Hepatocyte; details: rhesus monkey, 2 h
[6] = Metabolic stability in human liver microsomes assessed as intrinsic clearance at 10 uM preincubated for 5 mins followed by NADPH addition and measured upto 65 mins by LC-MS/MS analysis; assay type: ADME, Microsome; details: time < 70 min, read-out: CLH
[7] = Clearance in Beagle dog by LC-MS/MS analysis; assay type: ADME, Canis lupus familiaris; details: in vivo
Cytochrome P450 1A2 = target: T1, Cytochrome P450 1A2 (Homo sapiens, UniProt P05177); test: Inhibition of CYP1A2 (unknown origin); assay type: ADME
T1 sequence (P05177 whole entry): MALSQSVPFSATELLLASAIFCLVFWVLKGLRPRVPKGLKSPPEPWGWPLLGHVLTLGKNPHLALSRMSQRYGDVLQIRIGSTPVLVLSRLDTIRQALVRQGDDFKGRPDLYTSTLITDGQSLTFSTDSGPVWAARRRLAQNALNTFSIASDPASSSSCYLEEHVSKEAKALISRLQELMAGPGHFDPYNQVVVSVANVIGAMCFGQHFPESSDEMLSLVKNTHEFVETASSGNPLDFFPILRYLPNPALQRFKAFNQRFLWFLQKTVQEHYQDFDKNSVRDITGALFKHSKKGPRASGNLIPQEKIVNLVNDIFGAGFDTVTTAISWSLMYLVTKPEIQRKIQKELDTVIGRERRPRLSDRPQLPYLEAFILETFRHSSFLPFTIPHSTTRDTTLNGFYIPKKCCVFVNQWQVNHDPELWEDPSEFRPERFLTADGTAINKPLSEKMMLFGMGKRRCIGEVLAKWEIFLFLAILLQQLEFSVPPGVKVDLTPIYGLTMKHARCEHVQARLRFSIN

Cytochrome P450 2C19 = Cytochrome P450 2C19 (Homo sapiens, UniProt P33261); test: Inhibition of CYP2C19 (unknown origin); assay type: ADME
Cytochrome P450 2D6 = Cytochrome P450 2D6 (Homo sapiens, UniProt P10635); test: Inhibition of CYP2D6 (unknown origin); assay type: ADME
Cytochrome P450 3A4 = Cytochrome P450 3A4 (Homo sapiens, UniProt P08684); test: Inhibition of CYP3A4 (unknown origin); assay type: ADME
[8] = Plasma protein binding in rat after 15 mins by equilibrium dialysis method; assay type: ADME, cell-free; details: read-out: PPB (converted)
[9] = Plasma protein binding in dog after 15 mins by equilibrium dialysis method; assay type: ADME, cell-free, Canis lupus familiaris; details: read-out: PPB (converted)
[10] = target: Potassium voltage-gated channel subfamily A member 5 (Homo sapiens, UniProt P22460); test: Inhibition of Kv1.5 (unknown origin) by patch clamp method
[11] = target: Ionotropic glutamate receptor NMDA 1/2C (Homo sapiens, UniProt Q05586+Q14957); test: Positive allosteric modulation of recombinant human GluN1/GluN2C receptor stably expressed in HEK293 cells assessed as increase in glycine/L-glutamate-induced channel current at -70 mV holding potential by whole cell patch clamp method
Mus musculus [12] = test: Reversal of DOI-induced hyperlocomotion in CD-1 mouse assessed as reduction in distance travel at 7.5 mg/kg, ip administered 90 mins prior to DOI induction and measured upto 30 mins post DOI treatment (reference value: 7.8 +/- 0.8 meter); assay type: functional; details: time <= 120 min, 2 h
Mus musculus [13] = test: Reversal of DOI-induced hyperlocomotion in CD-1 mouse assessed as reduction in distance travel at 10 mg/kg, ip administered 90 mins prior to DOI induction and measured upto 30 mins post DOI treatment (reference value: 7.8 +/- 0.8 meter); assay type: functional; details: time <= 120 min, 2 h
Mus musculus [14] = test: Reversal of DOI-induced hyperlocomotion in CD-1 mouse assessed as reduction in rearing at 3 mg/kg, ip administered 90 mins prior to DOI induction and measured upto 30 mins post DOI treatment (reference value: 59.8 +/- 8.6 Counts); assay type: functional; details: time <= 120 min, 2 h
Mus musculus [15] = test: Reversal of DOI-induced hyperlocomotion in CD-1 mouse assessed as reduction in rearing at 7.5 mg/kg, ip administered 90 mins prior to DOI induction and measured upto 30 mins post DOI treatment (reference value: 59.8 +/- 8.6 Counts); assay type: functional; details: time <= 120 min, 2 h
[16] = Drug concentration in CD-1 mouse plasma at 7.5 mg/kg, ip administered for 90 mins; assay type: ADME, organism-based
[17] = Drug concentration in CD-1 mouse brain at 5 mg/kg, ip administered for 90 mins; assay type: ADME, organism-based; details: read-out: Ct
[18] = Drug concentration in CD-1 mouse brain at 7.5 mg/kg, ip administered for 90 mins; assay type: ADME, organism-based; details: read-out: Ct
in vivo [19] = details: CD-1, mouse, brain and plasma
Description: Ratio of AUC(0 to 72 hrs) in CD-1 mouse brain to plasma by LC-MS/MS analysis

in vivo [20] = details: Sprague-Dawley, rat, brain and plasma
Description: Ratio of AUC(0 to 72 hrs) in Sprague-Dawley rat brain to plasma by LC-MS/MS analysis

Chain of Cytochrome P450 2C19 (P33261 whole entry): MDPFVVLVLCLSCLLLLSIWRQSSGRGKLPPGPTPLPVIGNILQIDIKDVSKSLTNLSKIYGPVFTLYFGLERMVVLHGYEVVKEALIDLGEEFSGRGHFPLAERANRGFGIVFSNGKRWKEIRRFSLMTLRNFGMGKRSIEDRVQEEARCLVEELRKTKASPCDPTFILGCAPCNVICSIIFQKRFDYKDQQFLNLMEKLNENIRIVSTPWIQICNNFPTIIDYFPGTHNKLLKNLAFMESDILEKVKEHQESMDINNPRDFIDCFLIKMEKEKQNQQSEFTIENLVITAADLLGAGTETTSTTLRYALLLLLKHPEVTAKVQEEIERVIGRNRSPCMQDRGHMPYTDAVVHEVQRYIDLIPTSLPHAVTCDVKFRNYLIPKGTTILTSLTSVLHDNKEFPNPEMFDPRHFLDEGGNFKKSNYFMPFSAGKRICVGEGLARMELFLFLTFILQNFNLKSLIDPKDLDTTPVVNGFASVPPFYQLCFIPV
Chain of Cytochrome P450 2D6 (P10635 whole entry): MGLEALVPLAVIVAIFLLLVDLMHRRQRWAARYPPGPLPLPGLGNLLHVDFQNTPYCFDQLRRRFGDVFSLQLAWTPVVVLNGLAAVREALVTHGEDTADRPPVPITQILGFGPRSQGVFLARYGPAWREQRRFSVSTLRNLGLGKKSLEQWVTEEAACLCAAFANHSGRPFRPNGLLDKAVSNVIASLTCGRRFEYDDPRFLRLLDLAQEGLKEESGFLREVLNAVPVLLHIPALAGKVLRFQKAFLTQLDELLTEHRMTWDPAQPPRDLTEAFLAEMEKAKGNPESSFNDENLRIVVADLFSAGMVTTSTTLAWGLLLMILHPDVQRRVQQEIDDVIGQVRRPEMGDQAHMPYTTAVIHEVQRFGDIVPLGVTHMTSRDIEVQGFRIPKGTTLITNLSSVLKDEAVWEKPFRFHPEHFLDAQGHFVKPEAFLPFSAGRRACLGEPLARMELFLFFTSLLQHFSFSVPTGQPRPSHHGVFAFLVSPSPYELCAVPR
Chain of Ionotropic glutamate receptor NMDA 1/2C (Q14957 whole entry, other chains not shown): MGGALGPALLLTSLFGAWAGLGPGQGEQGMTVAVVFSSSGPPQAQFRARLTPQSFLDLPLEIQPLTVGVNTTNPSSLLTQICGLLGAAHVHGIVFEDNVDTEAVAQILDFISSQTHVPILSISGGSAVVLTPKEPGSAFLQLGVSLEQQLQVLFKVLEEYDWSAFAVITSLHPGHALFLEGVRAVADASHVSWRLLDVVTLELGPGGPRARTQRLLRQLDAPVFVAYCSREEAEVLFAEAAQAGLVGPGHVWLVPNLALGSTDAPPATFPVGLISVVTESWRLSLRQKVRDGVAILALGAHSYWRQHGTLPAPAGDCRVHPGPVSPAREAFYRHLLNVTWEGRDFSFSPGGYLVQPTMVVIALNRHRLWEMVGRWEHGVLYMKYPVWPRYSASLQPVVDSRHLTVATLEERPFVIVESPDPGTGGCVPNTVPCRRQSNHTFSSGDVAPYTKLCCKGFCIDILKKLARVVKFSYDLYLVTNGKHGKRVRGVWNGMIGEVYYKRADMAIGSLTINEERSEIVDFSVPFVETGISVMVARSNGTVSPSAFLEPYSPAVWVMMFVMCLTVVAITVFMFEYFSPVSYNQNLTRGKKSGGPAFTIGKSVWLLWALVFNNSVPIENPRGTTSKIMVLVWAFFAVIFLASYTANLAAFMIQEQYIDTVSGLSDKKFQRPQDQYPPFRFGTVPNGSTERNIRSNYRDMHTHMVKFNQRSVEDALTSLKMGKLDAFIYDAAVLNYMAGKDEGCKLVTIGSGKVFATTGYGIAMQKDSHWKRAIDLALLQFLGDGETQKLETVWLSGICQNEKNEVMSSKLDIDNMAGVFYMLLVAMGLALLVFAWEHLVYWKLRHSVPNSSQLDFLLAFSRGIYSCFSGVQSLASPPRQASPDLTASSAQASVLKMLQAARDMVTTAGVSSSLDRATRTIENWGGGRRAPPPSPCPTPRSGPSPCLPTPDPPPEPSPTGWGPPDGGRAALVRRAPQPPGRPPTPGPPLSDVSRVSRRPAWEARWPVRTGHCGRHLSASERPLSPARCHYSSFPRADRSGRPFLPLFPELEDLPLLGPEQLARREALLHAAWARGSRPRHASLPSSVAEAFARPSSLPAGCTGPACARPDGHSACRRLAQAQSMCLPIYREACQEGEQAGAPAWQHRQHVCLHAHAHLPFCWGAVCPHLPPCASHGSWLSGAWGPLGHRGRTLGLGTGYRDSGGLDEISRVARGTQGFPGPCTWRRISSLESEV
Chain of Cytochrome P450 3A4 (P08684 whole entry): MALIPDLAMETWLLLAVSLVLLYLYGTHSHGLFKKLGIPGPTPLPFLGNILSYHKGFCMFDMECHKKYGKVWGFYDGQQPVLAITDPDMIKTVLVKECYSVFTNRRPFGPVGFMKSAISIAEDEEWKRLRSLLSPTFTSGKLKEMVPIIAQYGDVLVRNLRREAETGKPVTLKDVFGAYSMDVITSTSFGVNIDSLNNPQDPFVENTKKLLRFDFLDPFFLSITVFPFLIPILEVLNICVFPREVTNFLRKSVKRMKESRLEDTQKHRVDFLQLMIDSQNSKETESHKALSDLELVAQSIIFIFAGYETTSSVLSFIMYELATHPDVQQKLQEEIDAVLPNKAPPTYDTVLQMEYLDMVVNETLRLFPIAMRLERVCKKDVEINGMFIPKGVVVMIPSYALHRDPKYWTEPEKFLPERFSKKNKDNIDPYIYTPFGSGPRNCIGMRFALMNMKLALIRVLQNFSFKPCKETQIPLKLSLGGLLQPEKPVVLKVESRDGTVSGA
Chain of Potassium voltage-gated channel subfamily A member 5 (P22460 whole entry): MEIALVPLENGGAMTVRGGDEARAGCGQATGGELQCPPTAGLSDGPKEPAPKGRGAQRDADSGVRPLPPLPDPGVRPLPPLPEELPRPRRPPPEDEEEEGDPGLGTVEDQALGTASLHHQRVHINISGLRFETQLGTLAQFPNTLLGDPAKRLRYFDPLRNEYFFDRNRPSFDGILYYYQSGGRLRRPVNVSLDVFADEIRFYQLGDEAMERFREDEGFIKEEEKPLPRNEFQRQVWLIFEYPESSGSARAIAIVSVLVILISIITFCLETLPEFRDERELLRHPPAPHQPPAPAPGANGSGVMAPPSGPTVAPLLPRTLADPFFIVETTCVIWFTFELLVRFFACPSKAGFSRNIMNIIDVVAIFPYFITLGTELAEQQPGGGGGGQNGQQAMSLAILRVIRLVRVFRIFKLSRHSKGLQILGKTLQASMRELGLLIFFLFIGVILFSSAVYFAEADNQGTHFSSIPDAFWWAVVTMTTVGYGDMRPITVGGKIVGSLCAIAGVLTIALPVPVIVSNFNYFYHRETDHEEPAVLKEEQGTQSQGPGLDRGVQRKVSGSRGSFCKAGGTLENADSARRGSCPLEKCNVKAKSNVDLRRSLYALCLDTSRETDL
Chain of Glutamate NMDA receptor; GRIN1/GRIN2A (Q12879 whole entry, other chains not shown): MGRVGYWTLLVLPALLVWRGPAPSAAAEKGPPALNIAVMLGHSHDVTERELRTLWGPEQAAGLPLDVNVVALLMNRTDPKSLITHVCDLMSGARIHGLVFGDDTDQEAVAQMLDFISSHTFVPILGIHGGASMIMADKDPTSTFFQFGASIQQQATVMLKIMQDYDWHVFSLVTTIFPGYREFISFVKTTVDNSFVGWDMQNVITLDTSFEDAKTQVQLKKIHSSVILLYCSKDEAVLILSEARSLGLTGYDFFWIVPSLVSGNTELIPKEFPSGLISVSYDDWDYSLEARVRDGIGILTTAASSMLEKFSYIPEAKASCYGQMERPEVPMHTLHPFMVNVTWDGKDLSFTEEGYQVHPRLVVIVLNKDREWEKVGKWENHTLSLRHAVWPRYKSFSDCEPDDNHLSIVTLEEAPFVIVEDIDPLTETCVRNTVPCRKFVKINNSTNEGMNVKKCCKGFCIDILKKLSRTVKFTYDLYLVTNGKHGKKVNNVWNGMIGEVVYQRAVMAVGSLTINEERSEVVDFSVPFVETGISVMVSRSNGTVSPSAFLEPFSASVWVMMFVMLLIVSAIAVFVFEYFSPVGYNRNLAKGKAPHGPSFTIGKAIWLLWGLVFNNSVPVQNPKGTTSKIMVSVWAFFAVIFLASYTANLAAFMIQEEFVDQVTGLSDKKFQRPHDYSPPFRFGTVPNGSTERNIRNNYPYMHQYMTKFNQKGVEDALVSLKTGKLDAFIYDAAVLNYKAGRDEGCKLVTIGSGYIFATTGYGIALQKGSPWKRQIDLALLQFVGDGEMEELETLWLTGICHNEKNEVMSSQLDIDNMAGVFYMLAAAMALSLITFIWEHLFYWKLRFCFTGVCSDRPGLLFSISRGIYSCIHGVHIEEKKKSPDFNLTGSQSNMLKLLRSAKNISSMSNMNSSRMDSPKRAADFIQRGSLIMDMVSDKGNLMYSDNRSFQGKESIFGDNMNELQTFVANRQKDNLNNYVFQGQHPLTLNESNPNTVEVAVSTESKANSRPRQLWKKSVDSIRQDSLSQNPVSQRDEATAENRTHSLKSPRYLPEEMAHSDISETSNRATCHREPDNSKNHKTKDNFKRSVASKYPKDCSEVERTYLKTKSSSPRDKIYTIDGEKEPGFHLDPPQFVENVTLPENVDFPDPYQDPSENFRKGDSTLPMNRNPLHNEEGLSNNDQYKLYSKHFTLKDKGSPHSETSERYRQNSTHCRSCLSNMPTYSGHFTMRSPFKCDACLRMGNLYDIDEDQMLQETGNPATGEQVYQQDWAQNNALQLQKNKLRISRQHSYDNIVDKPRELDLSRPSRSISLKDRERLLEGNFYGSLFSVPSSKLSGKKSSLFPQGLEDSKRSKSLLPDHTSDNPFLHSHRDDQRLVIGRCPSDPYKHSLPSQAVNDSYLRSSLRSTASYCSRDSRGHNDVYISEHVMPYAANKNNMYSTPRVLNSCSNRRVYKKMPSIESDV

SMILES: C[C@H](CC[C@](C)(O)C(F)(F)F)[C@H]1CC[C@H]2[C@@H]3CC=C4C[C@@](C)(O)CC[C@]4(C)[C@H]3CC[C@]12C [DALZANEMDOR]
- microsomal CLint at 10 µM [1]: 11 µL/min/mg
- EC50 [2]: 0.086 µM
- logD at 20 µM [3]: 6.2
- solubility at 1 h [4]: 2.2 µM (≈ 1 µg/mL)
- CLH [5]: 18.3 mL/min/kg
- microsomal CLint at 10 µM [6]: 10 µL/min/mg
- clearance [7]: 3.33 mL/min/kg
- IC50 (Cytochrome P450 1A2): > 100 µM
- IC50 (Cytochrome P450 2C19): > 100 µM
- IC50 (Cytochrome P450 2D6): > 100 µM
- IC50 (Cytochrome P450 3A4): > 100 µM
- fraction unbound at 0.25 h [8]: 0.022
- fraction unbound at 0.25 h [9]: 0.028
- IC50 [10]: > 30 µM
- EC50 [11]: 0.15 µM
- Activity (Mus musculus [12]): 0.4 m
- Activity (Mus musculus [13]): 1.1 m
- Activity (Mus musculus [14]): 52.9 Counts
- Activity (Mus musculus [15]): 6.1 Counts
- concentration at 1.5 h [16]: 1590 ng/mL
- concentration at 1.5 h [17]: 894 ng/g
- concentration at 1.5 h [18]: 1190 ng/g
- Kp (in vivo [19]): 1.8
- Kp (in vivo [20]): 5.3
